# Literature values, collected in patent US20030036641A1, “Methods for homology-driven reassembly of nucleic acid sequences” (priority 2001, published 2003).
# Test system: E. coli TG1
# Conditions: E. coli TG1 containing pGJ103 (pI258 ars operon in pUC19), LB ampicillin agar plates
substance,measurement,value
sodium arsenate,MIC (minimum inhibitory concentration),4 µg/mL
